Data on 3 compounds can be found in patent publication US10314799B2 (priority 2015, dated 2019).

The test system of experiment [1] is PEDV. The following applies: Virus Research (2013), 171(1), 44-53; cited from earlier work.
Experiment [2] relates to PEDV. As to the kind of experiment: Prevention of porcine epidemic diarrhea of newborn piglets by orally administering taurine to PEDV-carried pregnant sows. Type of experiment: in vivo, pigs. The following applies: taurine 50 g per sow per day, oral. From the text:
Prevention of the porcine epidemic diarrhea on the newborn piglets with taurine was implemented by orally administering taurine to pregnant sows.
Drug administration time: 3-30 days before birth of piglets until 15 days after birth of piglets. In consideration of a use-cost, the drug administration time is preferably 5-20 days before birth of piglets until 10 days after birth of piglets, and more preferably 7-14 days before birth of piglets until 5 days after birth of piglets. The effect is subject to an obvious time-effect relationship. The drug administration time for before birth of piglets directly determines a disease incidence of the newborn piglets.
Drug administration dosage: each pregnant sow was administered with 5-500 g of taurine per day, and the administration was in a single dose or in divided doses. The effect is subject to an obvious quantity-effect relationship.
Specific operations: pregnant sows were selected and excrement thereof was tested by RT-PCR to determine the pregnant sows carrying PEDV in vivo. 60 PEDV-carried pregnant sows were divided into two groups randomly. Control group: conventional feeding; experimental group: conventional feeding+50 g per sow per day of taurine.

Experiment [3] has as its system porcine epidemic diarrhea. As to the kind of experiment: Treatment of porcine epidemic diarrhea of newborn suckling piglets (piglets and lactating sows treated). The conditions noted are these: diseased newborn suckling piglets; 100 g per sow per day, 0.2 g per piglet per day. The experiment is classed as in vivo, pigs. As for the experimental part: Treatment of the porcine epidemic diarrhea on newborn piglets with taurine was implemented by orally administering a taurine solution to diseased suckling piglets and administering taurine to lactating sows, that is, simultaneous treatment of both the suckling piglets and the lactating sows.
Drug administration time: the administration by drenching/mixed-feeding was carried out on the day when the disease occurred in the suckling piglets and a non-interrupted administration lasted for 3-10 days. Lactating sows: non-interrupted oral administration lasted for 5-10 days.
Drug administration dosage: the administration by drenching and/or mixed-feeding was carried out on the day when the disease occurred in the suckling piglets. The administration by drenching: 2% taurine solution at a dosage of 1-5 mL per time and it was taken 2-6 times per day. The administration by mixed-feeding: 1-20 g/L of taurine solution was drunk freely. Lactating sows: each sow was administered with 5-500 g of taurine per day and the administration was in a single dose or in divided doses.
Specific operations: 40 litters of diseased newborn suckling piglets and sows thereof were selected and randomly divided into two groups equivalently. Control group: conventional supportive therapy (fluid infusion+antibiotic therapy+atropine sulfate); experimental group: treatment with taurine.

The test system of experiment [4] is porcine epidemic diarrhea. The experiment can be described thus: Prevention of porcine epidemic diarrhea of weaned piglets, care pigs and finishing pigs. The experiment is classed as in vivo. The conditions noted are these: 200 mg per kilogram of body weight per day. As for the experimental part: Prevention of the porcine epidemic diarrhea on the weaned piglets, the care pigs and the finishing pigs with taurine was implemented by orally administering taurine to a swine herd, wherein the administration may be carried out by means of feeding in water or mixed feeding.
Drug administration time: a preventative administration was carried out during an epidemic period of the disease, or in autumn, winter and spring when the temperature was low and changed greatly, that is, in the season when the porcine epidemic diarrhea frequently occurs. Generally, the administration can be carried out for a long-term. In consideration of the use-cost, the drug administration time is preferably 3-30 days, and more preferably, 7-14 days. The effect is subject to an obvious time-effect relationship.
Drug administration dosage: 0.005-2% of taurine was added in daily-drinking water for the pigs to drink freely; or 0.01-5% of taurine was added into the feed, which is equivalent to a dosage of 50-10000 mg per kilogram of body weight per day of taurine, and the administration was in a single dose or in divided doses. The effect is subject to an obvious quantity-effect relationship.
Specific operations: 120 healthy weaned piglets, 120 healthy care pigs and 120 healthy finishing pigs were selected and randomly divided into two groups equivalently. Control group: conventional feeding; experimental group: conventional feeding+taurine (the dosage of taurine was 200 mg per kilogram of body weight per day).

Experiment [5] deals with porcine epidemic diarrhea. The experiment can be described thus: Treatment of porcine epidemic diarrhea of weaned piglets, care pigs and finishing pigs. The experiment is classed as in vivo. The following applies: 300 mg per kilogram of body weight per day. The protocol:
Treatment of the porcine epidemic diarrhea on the weaned piglets, the care pigs and the finishing pigs with taurine was implemented by orally administering taurine to the pigs, wherein the administration may be carried out by means of feeding in water or mixed feeding.
Drug administration time: the administration was carried out from the day of occurrence of the disease, and in consideration of the use-cost, the drug administration time is preferably 3-30 days, and more preferably 7-14 days. The effect is subject to an obvious time-effect relationship.
Drug administration dosage: 0.1-2% of taurine was added in the daily-drinking water for the pigs to drink freely; or 0.2-5% of taurine was added into the feed, which is equivalent to a dosage of 100-10000 mg per kilogram of body weight per day of taurine, and the administration was in a single dose or in divided doses. The effect is subject to an obvious quantity-effect relationship.
Specific operations: 60 diseased weaned piglets, 60 diseased care pigs and 60 diseased finishing pigs were selected, and were randomly divided into two groups equivalently. Control group: conventional supportive therapy (fluid infusion+antibiotic therapy+atropine sulfate); experimental group: treatment with taurine (the dosage of taurine was 300 mg per kilogram of body weight per day).

Experiment [6] deals with porcine transmissible gastroenteritis. The experiment is classed as in vivo, pigs.
A further experiment concerns rotavirus diarrhea. The experiment can be described thus: Treatment of rotavirus diarrhea. The experiment is classed as in vivo, pigs.
The subject of experiment [7] is pseudorabies viral diarrhea. The experiment is classed as in vivo, pigs.
The test system of the next experiment is epidemic diarrhea. The following applies: orally administered to diseased piglets, specific dose; cited from earlier work.
The mark [8] stands for this setting: care pigs, dosage as in Embodiment 4.
Where [9] appears, read: finishing pigs, dosage as in Embodiment 4.
[10] abbreviates: newborn piglets, dosage as in Embodiment 2.
The mark [11] stands for this setting: weaned piglets, dosage as in Embodiment 4.

Where two headings read alike, the source gives them in different places.

For the compound `NC(=O)c1ncn([C@@H]2O[C@H](CO)[C@@H](O)[C@H]2O)n1` [Ribavirin], in the experiment on PEDV [1], the “inhibition of replication of PEDV” value is recorded as “capable of inhibiting replication of PEDV”.

As for `NCCS(=O)(=O)O` [taurine, β-aminoethanesulfonic acid], the “Death rate of the newborn piglets (%)” value with PEDV [2] worked out at 75.1%. In addition, the “Disease incidence of the new born piglets (%)” value in the experiment on PEDV [2] was found to be 85%. Further, the “10-day-aged survival rate (%)” value in experiment [3] worked out at 22.5%. Also, the Prognosis entry was “Good” in experiment [3]; “Excellent” in experiment [4] (care pigs); “Excellent” in experiment [4] (finishing pigs); “Excellent” in [4] (weaned piglets); “Good” in experiment [5] (diseased care pigs); “Good” in experiment [5] (diseased finishing pigs). For the same compound, the Prognosis entry (in experiment [5] (diseased weaned piglets); in experiment [6] (setting [8]); in experiment [6] (setting [9]); in experiment [6] (setting [10]); in experiment [6] (setting [11]); with rotavirus diarrhea (setting [8])) was “Good” throughout. In addition, the results for the Prognosis result (in the experiment with rotavirus diarrhea (setting [10]); in the experiment with rotavirus diarrhea (setting [11]); in experiment [7] (setting [8])) were “Good”, “Good” and “General”, respectively. In experiment [3], this compound displayed a Weaned survival rate of 20.7. For the same compound, the “Disease incidence (%)” value in [4] (care pigs) is reported as 3.3%; in [4] (finishing pigs) it was 0%; in [4] (weaned piglets), 6.6%. Besides, the “Survival rate (%)” value in [4] (care pigs) is listed as 96.6%; in experiment [4] (finishing pigs), 98.3%; in experiment [4] (weaned piglets) it was 96.6%; in [5] (diseased care pigs), 93.3%; in experiment [5] (diseased finishing pigs) it was 100%; in [5] (diseased weaned piglets), 90.0%. For the same compound, the “Survival rate (%)” value in experiment [6] (setting [8]) worked out at 93.3%; in experiment [6] (setting [9]) it was 96.6%; in [6] (setting [10]) it was 16.6%; in [6] (setting [11]) it was 90%; in the experiment on rotavirus diarrhea (setting [8]) it was 96.6%; with rotavirus diarrhea (setting [10]), 93.6%. In addition, the “Survival rate (%)” value turned out to be 96.6% in the experiment on rotavirus diarrhea (setting [11]), 43.3% in experiment [7] (setting [8]) and 0% in experiment [7] (setting [10]). The “treatment effect on the pseudorabies viral diarrhea” value in experiment [7] (summary of Table 5) is reported as “no treatment effect”.

In the case of povidone iodine, the “improvement of survival rate” value with epidemic diarrhea was 5-10%.
